Results published in ChEMBL document CHEMBL1138039, “Discovery and pharmacological evaluation of growth hormone secretagogue receptor antagonists” (J Med Chem, 2006).
The source made the active and inactive calls. The calls are words filed in the database; no cut-off is given here.

Key:
[1] = biological target: T1, Dihydrofolate reductase (Homo sapiens) (UniProt P00374); test: Inhibition of human recombinant DHFR assessed as rate of depletion of NADPH at 1 uM
T1 sequence (whole entry): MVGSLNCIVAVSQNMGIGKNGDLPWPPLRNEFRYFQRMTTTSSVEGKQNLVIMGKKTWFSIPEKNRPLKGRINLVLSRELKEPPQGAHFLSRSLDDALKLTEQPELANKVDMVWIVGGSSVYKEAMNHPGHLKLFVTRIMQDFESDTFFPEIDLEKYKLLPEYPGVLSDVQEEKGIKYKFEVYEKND

[2] = biological target: T2, Growth hormone secretagogue receptor type 1 (Homo sapiens, UniProt Q92847); test: Inhibition of [125I]ghrelin binding to GHS receptor in CHO-K cells; assay type: cell-based
T2 sequence (Q92847 whole entry): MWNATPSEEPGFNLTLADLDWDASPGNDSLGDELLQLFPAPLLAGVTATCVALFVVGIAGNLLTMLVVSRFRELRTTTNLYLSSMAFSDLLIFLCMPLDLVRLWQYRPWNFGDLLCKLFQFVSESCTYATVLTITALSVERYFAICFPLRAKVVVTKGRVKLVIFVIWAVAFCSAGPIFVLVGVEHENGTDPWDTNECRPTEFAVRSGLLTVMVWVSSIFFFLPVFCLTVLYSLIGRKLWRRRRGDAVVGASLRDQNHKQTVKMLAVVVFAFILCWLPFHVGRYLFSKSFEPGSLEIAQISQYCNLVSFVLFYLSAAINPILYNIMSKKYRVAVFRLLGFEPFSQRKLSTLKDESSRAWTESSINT

[3] = biological target: T2, Growth hormone secretagogue receptor type 1; test: Activity at GHS receptor by calcium flux assay in CHO-K cells; assay type: functional, cell-based
Dihydrofolate reductase = biological target: T3, Dihydrofolate reductase (Homo sapiens, UniProt P00374); test: Inhibition of human recombinant DHFR assessed as rate of depletion of NADPH
T3 sequence (P00374 whole entry): T1 sequence (whole entry)

[4] = Bioavailability in rat; assay type: ADME, organism-based; details: in vivo
Mus musculus [5] = test: Reduction of cumulative food intake in fasted DIO mouse at 100 mg/kg, po after 1 hr; assay type: functional; parameters: scale not given: the % may be the effect or the level left
Mus musculus [6] = test: Reduction of cumulative food intake in fasted DIO mouse at 100 mg/kg, po after 20 mins; assay type: functional; parameters: scale not given: the % may be the effect or the level left
Mus musculus [7] = test: Reduction of cumulative food intake in fasted DIO mouse at 30 mg/kg, po after 20 mins; assay type: functional; parameters: scale not given: the % may be the effect or the level left
Mus musculus [8] = test: Ratio of drug level in brain against plasma in orally dosed DIO mouse; assay type: ADME, organism-based; details: po
Mus musculus [9] = test: Reduction of cumulative food intake in fasted DIO mouse at 30 mg/kg, po after 1 hr; assay type: functional; parameters: scale not given: the % may be the effect or the level left
[10] = Half life in DIO mouse; assay type: ADME, organism-based; details: in vivo
[11] = AUC in orally dosed DIO mouse; assay type: ADME, organism-based; details: plasma, po
Mus musculus [12] = test: Reduction of cumulative food intake in fasted DIO mouse at 30 mg/kg, ip after 24 hrs; assay type: functional, organism-based; parameters: dose 30 mg/kg
Mus musculus [13] = test: Reduction of cumulative food intake in fasted DIO mouse at 30 mg/kg, ip after 2 hrs; assay type: functional, organism-based; parameters: dose 30 mg/kg
Mus musculus [14] = test: Reduction of cumulative food intake in fasted DIO mouse at 30 mg/kg, ip after 4 hrs; assay type: functional, organism-based; parameters: dose 30 mg/kg
[15] = Ratio of drug level in brain against plasma in rat after 8 hrs; assay type: ADME, organism-based; details: read-out: BBR
[16] = Ratio of drug level in brain against plasma in rat after 1 hr; assay type: ADME, organism-based; details: read-out: BBR
Mus musculus [17] = test: Decrease of food intake in C57BL/6J mouse at 50 mg/kg, po after 1 day; assay type: functional, organism-based; parameters: dose 50 mg/kg
Mus musculus [18] = test: Decrease of body weight in C57BL/6J mouse at 50 mg/kg, po after 14 days; assay type: functional; parameters: scale not given: the % may be the effect or the level left
[19] = Half life in rat; assay type: ADME, organism-based; details: in vivo
Rattus norvegicus [20] = test: Reduction of cumulative food intake in Sprague-Dawley rat at 50 mg/kg, po after 32 hrs; assay type: functional; parameters: scale not given: the % may be the effect or the level left
Mus musculus [21] = test: Decrease of epididymal fat pad weight in C57BL/6J mouse at 50 mg/kg, po after 14 days; assay type: functional; parameters: scale not given: the % may be the effect or the level left
Rattus norvegicus [22] = test: Reduction of cumulative food intake in Sprague-Dawley rat at 50 mg/kg, po after 24 hrs; assay type: functional; parameters: scale not given: the % may be the effect or the level left
[23] = AUC in orally dosed rat; assay type: ADME, organism-based; details: plasma, po
Mus musculus [24] = test: Decrease of plasma insulin level in C57BL/6J mouse at 50 mg/kg, po after 14 days; assay type: functional, organism-based; parameters: dose 50 mg/kg
Mus musculus [25] = test: Change in lean body mass of C57BL/6J mouse at 50 mg/kg, po after 14 days; assay type: functional, organism-based; parameters: dose 50 mg/kg
[26] = Ratio of drug level in brain against plasma in rat after 4 hrs; assay type: ADME, organism-based; details: read-out: BBR

| SMILES | IC50 [2] | IC50 [3] | IC50 (Dihydrofolate reductase) | also measured |
| --- | --- | --- | --- | --- |
| CCc1nc(N)nc(N)c1-c1ccc2c(c1)ncn2Cc1ccc(S(C)(=O)=O)cc1 | 4 nM | 11 nM |  | inhibition [1]: 78% |
| Nc1nc(N)c(-c2ccc(NC(=O)C3CCCC3)cc2)c(COCc2ccccc2)n1 | 18 nM | 40 nM | > 10000 nM |  |
| Nc1nc(N)c(-c2ccc(NC(=O)Cc3ccsc3Br)cc2)c(COCc2ccccc2)n1 | 41 nM | 137 nM | > 10000 nM |  |
| CC(NC(=O)Nc1ccc(-c2c(N)nc(N)nc2COCc2ccccc2)cc1)c1ccccc1 (configuration not stated) |  | 10 nM |  |  |
| Nc1nc(N)c(-c2ccc(NC(=O)Cc3ccsc3)cc2)c(COCc2ccccc2)n1 | 70 nM | 382 nM |  |  |
| Nc1nc(N)c(-c2ccc(NC(=O)CCc3ccccc3)cc2)c(COCc2ccccc2)n1 | 47 nM | 343 nM |  |  |
| CCc1nc(N)nc(N)c1-c1ccc2c(c1)nc(-c1ccccc1)n2Cc1ccc(S(C)(=O)=O)cc1 | 16 nM | 249 nM | 2300 nM |  |
| CCc1nc(N)nc(N)c1-c1ccc(NCc2ccc(Cl)cc2)cc1 |  |  |  | bioavailability [4]: 75% |
| Nc1nc(N)c(-c2ccc(NC(=O)NCc3ccccc3)cc2)c(COCc2ccccc2)n1 |  | 34 nM |  |  |
| Nc1nc(N)c(-c2ccc(NC(=O)C3CCCO3)cc2)c(COCc2ccccc2)n1 (configuration not stated) | 391 nM | > 10000 nM |  |  |
| CCc1nc(N)nc(N)c1-c1ccc(NCc2ccc(S(C)(=O)=O)cc2)cc1 | 7 nM | 19 nM | < 10 nM | inhibition [1]: 99% |
| CC(C)CC(=O)Nc1ccc(-c2c(N)nc(N)nc2COCc2ccccc2)cc1 | 72 nM | 108 nM |  |  |
| CCC(=O)Nc1ccc(-c2c(N)nc(N)nc2COCc2ccccc2)cc1 | 221 nM | > 10000 nM |  |  |
| CC(C)NC(=O)Nc1ccc(-c2c(N)nc(N)nc2COCc2ccccc2)cc1 |  | 56 nM | > 10000 nM |  |
| Nc1nc(N)c(-c2ccc(NC(=O)NCCc3ccccc3)cc2)c(COCc2ccccc2)n1 |  | 7 nM | > 10000 nM |  |
| CN(C(=O)C1CCCC1)c1ccc(-c2c(N)nc(N)nc2COCc2ccccc2)cc1 | 1670 nM | > 10000 nM |  |  |
| Nc1nc(N)c(-c2ccc(NC(=O)Nc3ccccc3)cc2)c(COCc2ccccc2)n1 |  | 88 nM | > 10000 nM |  |
| Nc1nc(N)c(-c2ccc(NC(=O)Cc3ccccc3)cc2)c(COCc2ccccc2)n1 | 37 nM | 408 nM | > 10000 nM |  |
| Nc1nc(N)c(-c2ccc(NC(=O)Cc3cccnc3)cc2)c(COCc2ccccc2)n1 | > 1000 nM | > 10000 nM |  |  |
| CCc1nc(N)nc(N)c1-c1ccc2c(c1)nc(C1CCCC1)n2Cc1ccc(S(C)(=O)=O)cc1 | 8 nM | 109 nM | 1830 nM |  |
| Nc1nc(N)c(-c2ccc(NC(=O)c3ccncc3)cc2)c(COCc2ccccc2)n1 | 3080 nM | > 10000 nM |  |  |
| CC(C)N(C)C(=O)Nc1ccc(-c2c(N)nc(N)nc2COCc2ccccc2)cc1 |  | > 10000 nM |  |  |
| CC(C)(C)NC(=O)Nc1ccc(-c2c(N)nc(N)nc2COCc2ccccc2)cc1 |  | 7 nM | > 100000 nM | Activity (Mus musculus [5]): 60%; Activity (Mus musculus [6]): 40%; Activity (Mus musculus [7]): 40%; BBR (Mus musculus [8]): Not Active; Activity (Mus musculus [9]): 60%; half-life [10]: 4.5 h; AUC [11]: 12300 ng·h/mL |
| Nc1nc(N)c(-c2ccc(NCc3ccc(Cl)cc3)cc2)c(COCc2ccccc2)n1 |  |  |  | Activity (Mus musculus [12]): Active; Activity (Mus musculus [13]): Active; Activity (Mus musculus [14]): Active; Kp at 8 h [15]: 1.4; Kp at 1 h [16]: 3.1 |
| CC(=O)Nc1ccc(-c2c(N)nc(N)nc2COCc2ccccc2)cc1 | 2270 nM | > 10000 nM |  |  |
| Nc1nc(N)c(-c2ccc(NC(=O)c3ccsc3)cc2)c(COCc2ccccc2)n1 | 126 nM | > 10000 nM |  |  |
| Nc1nc(N)c(-c2ccc(NC(=O)C3CC3)cc2)c(COCc2ccccc2)n1 | 66 nM | 188 nM | 28000 nM | Activity (Mus musculus [17]): Active; Activity (Mus musculus [18]): 5.4%; half-life [19]: 2.4 h; Activity (Rattus norvegicus [20]): 11%; Activity (Mus musculus [21]): 20%; Activity (Rattus norvegicus [22]): 9%; Kp at 8 h [15]: 0.97; bioavailability [4]: 32%; AUC [23]: 820 ng·h/mL; Activity (Mus musculus [24]): Active; Kp at 1 h [16]: 0.26; Activity (Mus musculus [25]): inactive; Kp at 4 h [26]: 1.1 |
